This is an account of results in publication PMC12116762, “Topobexin targets the Topoisomerase II ATPase domain for beta isoform-selective inhibition and anthracycline cardioprotection” (Nature Communications, 2025).

One data set has as its target T1, YFP-TOP2A (Homo sapiens, UniProt P11388).
T1 construct: Using recombinant full-length human TOP2A and TOP2B enzymes; expressed in transfected cells; host or cells: HEK293F
Nature of the data set: FRAP analysis, YFP-TOP2A in HEK293F cells. Format: cell-based. Conditions: 15 min pre-incubation. The protocol:
(§1) HEK293F cells were transfected with DNA plasmids encoding yellow-fluorescent protein (YFP)-TOP2A or YFP-TOP2B (the same DNA constructs for mammalian protein expression and purification) using Lipofectamine 2000 (Thermo Fisher Scientific). Cells were cultured for 24 h post transfection and YFP signals were confirmed prior to FRAP experiments. Transfected cells were plated on glass-bottomed culture dishes (Matsunami) and rested overnight. The next day, each dish was pre-incubated with the indicated inhibitor treatment or DMSO control for 15 min prior to FRAP experiment. Each set of experiments was repeated on at least two different days using newly transfected cells each time. Live-cell imaging was done using a LSM 980 microscope (Carl Zeiss Microscopy, LLC). YFP signal was excited at 508 nm at 2% laser power and detected through a 516–604 nm range. A small area within the nucleus (purple box) is manually selected for fluorescence bleaching at 100% laser power for 50 iterations. Inhibition of TOP2 by obex inhibitors was detected by impairment in fluorescence recovery at 15 s post bleaching, as a lack of inhibition allows for TOP2 diffusion throughout the nucleus.

In another data set the target is T2, YFP-TOP2B (Homo sapiens, UniProt Q02880).
T2 construct: Using recombinant full-length human TOP2A and TOP2B enzymes; expressed in transfected cells; host or cells: HEK293F
T2 sequence (Q02880 1-1621 isoform Q02880-2): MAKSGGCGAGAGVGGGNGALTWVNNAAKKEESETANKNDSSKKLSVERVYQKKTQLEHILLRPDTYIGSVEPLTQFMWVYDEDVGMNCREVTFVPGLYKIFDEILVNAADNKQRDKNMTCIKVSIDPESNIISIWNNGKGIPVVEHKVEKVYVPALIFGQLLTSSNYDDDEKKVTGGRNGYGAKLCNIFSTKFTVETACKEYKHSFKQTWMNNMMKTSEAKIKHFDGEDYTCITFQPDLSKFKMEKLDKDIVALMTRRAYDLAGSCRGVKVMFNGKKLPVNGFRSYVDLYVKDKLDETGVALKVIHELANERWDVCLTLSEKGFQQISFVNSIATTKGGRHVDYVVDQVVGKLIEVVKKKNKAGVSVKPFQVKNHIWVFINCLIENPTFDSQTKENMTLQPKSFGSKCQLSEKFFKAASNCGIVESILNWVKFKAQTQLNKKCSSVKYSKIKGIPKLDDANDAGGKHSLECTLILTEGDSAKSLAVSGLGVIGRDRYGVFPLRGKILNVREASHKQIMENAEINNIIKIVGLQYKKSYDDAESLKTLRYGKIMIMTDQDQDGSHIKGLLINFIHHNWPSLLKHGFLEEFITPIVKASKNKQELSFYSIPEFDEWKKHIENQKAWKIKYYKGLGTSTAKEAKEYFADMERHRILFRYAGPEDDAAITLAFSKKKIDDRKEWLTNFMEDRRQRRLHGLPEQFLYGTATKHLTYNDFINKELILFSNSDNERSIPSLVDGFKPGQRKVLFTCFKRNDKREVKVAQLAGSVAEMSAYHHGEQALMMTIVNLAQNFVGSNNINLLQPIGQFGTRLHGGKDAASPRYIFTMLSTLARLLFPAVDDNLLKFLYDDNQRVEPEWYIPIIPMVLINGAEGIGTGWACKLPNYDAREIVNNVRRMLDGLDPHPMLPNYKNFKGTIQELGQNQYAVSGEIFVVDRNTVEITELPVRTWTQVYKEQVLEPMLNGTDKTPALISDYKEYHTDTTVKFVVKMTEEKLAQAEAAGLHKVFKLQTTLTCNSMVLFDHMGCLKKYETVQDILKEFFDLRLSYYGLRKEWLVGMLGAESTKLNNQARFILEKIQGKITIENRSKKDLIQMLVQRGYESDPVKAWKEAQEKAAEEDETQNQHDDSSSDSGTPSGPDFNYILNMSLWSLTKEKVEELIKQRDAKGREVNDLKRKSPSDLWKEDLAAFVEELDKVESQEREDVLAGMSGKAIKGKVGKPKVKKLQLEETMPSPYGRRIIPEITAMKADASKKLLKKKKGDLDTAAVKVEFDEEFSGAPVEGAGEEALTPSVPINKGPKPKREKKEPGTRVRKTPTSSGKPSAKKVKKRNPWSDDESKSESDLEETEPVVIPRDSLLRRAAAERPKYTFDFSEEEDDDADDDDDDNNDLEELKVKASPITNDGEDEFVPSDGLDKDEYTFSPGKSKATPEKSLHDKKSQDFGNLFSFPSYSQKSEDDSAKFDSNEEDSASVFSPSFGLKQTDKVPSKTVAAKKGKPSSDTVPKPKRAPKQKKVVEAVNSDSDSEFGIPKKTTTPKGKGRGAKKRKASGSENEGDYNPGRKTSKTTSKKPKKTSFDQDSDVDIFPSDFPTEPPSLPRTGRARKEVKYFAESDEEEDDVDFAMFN
Nature of the data set: FRAP analysis, YFP-TOP2B in HEK293F cells. As to conditions: 15 min pre-incubation. Format: cell-based. On the procedure:
as §1

Data set [1] relates to neonatal rat ventricular cardiomyocytes (NVCM). The data set is described as follows: Inherent toxicity (LDH release) in NVCM. Format: cell-based. Also on record: key to LDH release (inherent toxicity), mean of independent replicates: % of total LDH activity. Conditions: NVCM, Suppl.Fig.4. In a few lines:
(§2)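 Primary neonatal Wistar rat cardiomyocytes in serum- and pyruvate-free DMEM/F12 were pretreated with compound 3 h, then co-incubated 3 h with DAU (1.2 µM), or without DAU for inherent toxicity, then given a 48 h drug-free follow-up. Medium LDH activity (NAD+ reduction at 340 nm) expressed as % of total LDH.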

The test system is the same in data set [2]. Nature of the data set: Protection against DAU-induced cytotoxicity (LDH release) in NVCM. Details: key to Suppl.Fig.3 DAU-induced cytotoxicity (LDH release) in NVCM, mean of independent replicates / LDH release (DAU-induced cytotoxicity), mean of independent replicates: % of total LDH activity. Format: cell-based. In a few lines:
as §2

For the next data set, the target named is T3, recombinant human TOP2B (Homo sapiens, UniProt Q02880).
T3 construct: Using recombinant full-length human TOP2A and TOP2B enzymes; YFP (N, cleaved yes); made in house; host or cells: HEK293F
T3 sequence (Q02880 1-1621 isoform Q02880-2): as above
The data set is described as follows: In vitro ATPase activity of TOP2B (coupled assay). Format: biochemical. The protocol: (§3) Topoisomerase proteins were diluted to 500 nM in storage buffer containing 20 mM HEPES pH 7.5, 500 mM NaCl, 0.5 mM TCEP, 25% glycerol, and 0.2 mg/mL BSA prior to use. A coupled assay was used to measure TOP2-catalyzed ATP hydrolysis in vitro[37] in Costar 96-well plates (Corning Incorporated). […] Reaction plates were pre-warmed to 30 °C for 5 min and ATP was added last to initiate the reaction. The reaction plate was placed in a CLARIOstarPlus plate reader (BMG Labtech) to measure NADH fluorescence at 30 °C every 30 s over 120 cycles using a 340-60 excitation filter and a 480-100 emission filter. Background fluorescence signals calculated from wells containing no ATP were subtracted from each measurement. The slope of NADH fluorescence decay in each well was calculated using the MARS software (BMG Labtech) and reaction wells that lacked topoisomerase inhibitor to account for photobleaching of NADH fluorescence served as background subtraction. Each presented data point was obtained from distinct sample. Values were normalized to untreated controls and plotted as a function of inhibitor concentration to determine IC50 values using Prism 9 (GraphPad).

Another data set has as its target T4, recombinant human TOP2A (Homo sapiens, UniProt P11388).
T4 construct: Using recombinant full-length human TOP2A and TOP2B enzymes; YFP (N, cleaved yes); made in house; host or cells: HEK293F
The data set is described as follows: In vitro ATPase activity of TOP2A (coupled assay). As to conditions: n=3. Format: biochemical. On the procedure: as §3

What is called IC50 is the concentration that inhibits the measured activity by half.

T4 sequence (P11388 whole entry): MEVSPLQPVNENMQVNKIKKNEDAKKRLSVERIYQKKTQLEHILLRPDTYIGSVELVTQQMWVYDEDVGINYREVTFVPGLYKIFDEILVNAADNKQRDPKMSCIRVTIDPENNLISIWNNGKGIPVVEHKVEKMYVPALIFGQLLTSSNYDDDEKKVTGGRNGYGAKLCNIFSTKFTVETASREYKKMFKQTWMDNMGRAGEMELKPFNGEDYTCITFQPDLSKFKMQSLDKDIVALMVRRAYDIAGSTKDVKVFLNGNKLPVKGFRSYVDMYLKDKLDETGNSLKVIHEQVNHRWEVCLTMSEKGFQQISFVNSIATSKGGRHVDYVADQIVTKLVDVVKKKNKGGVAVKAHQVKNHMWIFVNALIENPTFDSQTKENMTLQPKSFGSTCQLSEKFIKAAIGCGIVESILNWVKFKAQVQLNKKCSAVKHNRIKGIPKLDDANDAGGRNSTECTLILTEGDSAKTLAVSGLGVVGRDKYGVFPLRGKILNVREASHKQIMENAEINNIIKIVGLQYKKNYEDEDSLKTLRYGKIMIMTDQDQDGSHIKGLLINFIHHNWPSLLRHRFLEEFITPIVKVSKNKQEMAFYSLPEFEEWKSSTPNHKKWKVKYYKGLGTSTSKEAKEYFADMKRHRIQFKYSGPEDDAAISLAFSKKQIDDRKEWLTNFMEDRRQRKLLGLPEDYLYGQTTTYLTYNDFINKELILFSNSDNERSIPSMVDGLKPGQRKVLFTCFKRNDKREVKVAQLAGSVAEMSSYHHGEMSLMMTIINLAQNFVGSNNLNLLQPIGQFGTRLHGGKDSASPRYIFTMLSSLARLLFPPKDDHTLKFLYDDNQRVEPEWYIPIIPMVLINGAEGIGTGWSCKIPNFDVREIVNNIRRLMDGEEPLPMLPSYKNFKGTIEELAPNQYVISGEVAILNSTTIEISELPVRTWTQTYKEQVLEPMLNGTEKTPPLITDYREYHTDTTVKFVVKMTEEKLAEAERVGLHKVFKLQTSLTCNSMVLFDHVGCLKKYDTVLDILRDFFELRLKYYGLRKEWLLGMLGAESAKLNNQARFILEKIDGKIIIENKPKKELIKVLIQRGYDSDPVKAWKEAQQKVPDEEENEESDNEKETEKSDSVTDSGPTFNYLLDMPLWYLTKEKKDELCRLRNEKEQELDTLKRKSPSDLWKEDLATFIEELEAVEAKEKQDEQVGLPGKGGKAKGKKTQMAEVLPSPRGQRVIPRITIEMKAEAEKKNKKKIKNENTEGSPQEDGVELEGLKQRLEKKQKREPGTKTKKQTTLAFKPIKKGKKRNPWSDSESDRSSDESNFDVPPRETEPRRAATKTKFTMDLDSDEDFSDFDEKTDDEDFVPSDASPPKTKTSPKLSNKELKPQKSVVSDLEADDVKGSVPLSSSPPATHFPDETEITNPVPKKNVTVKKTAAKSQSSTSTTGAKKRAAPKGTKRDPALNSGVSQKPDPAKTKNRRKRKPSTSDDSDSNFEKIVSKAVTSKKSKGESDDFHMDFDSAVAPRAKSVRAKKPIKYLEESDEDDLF
T1 sequence (P11388 whole entry): as above

Turning to `CCCc1cc(=O)oc2c(C(=O)N3CCCc4ccccc43)c(O)ccc12` [2c], the “fluorescence recovery of YFP-TOP2A (FRAP)” value on YFP-TOP2A is reported as “inhibits fluorescence recovery”. For the same molecule, the “fluorescence recovery of YFP-TOP2B (FRAP)” value at YFP-TOP2B is given as “inhibits fluorescence recovery”. Also, the “LDH release (inherent toxicity), mean of independent replicates” value in data set [1] (compound alone 1 µM) is given as 16.6801; in data set [1] (compound alone 10 µM), 16.3877; in data set [1] (compound alone 30 µM), 17.2005; in data set [1] (compound alone 100 µM) it was 29.603. Further, the minimal effective concentration in data set [2] (Rattus norvegicus, Cardiomyocyte, NVCM, protection against DAU 1.2 µM, n=4, read-out: LEC = lowest effective concentration) was found to be 10 µM. The “Suppl.Fig.3 DAU-induced cytotoxicity (LDH release) in NVCM, mean of independent replicates” value in data set [2] (compound 1 µM + DAU 1.2 µM) is given as 33.3224; in data set [2] (compound 10 µM + DAU 1.2 µM) it was 29.0836; in data set [2] (compound 30 µM + DAU 1.2 µM), 25.5275; in data set [2] (compound 100 µM + DAU 1.2 µM), 35.3978. Moreover, the “relative inhibition of TOP2A vs TOP2B” value at recombinant human TOP2B (ATPase) was “inhibited TOP2A and TOP2B with equal efficacy”. Further, the “SRbeta (SRTOP2B), TOP2 ATPase activity” value on recombinant human TOP2B (TOP2A IC50 divided by TOP2B IC50) is listed as 1.0. For the same molecule, the IC50 at recombinant human TOP2B (n=3) came out at 660 nM; on recombinant human TOP2A, 690 nM.
